Consider two compounds from patent US8173133B2, “Acyl pseudodipeptides which carry a functionalized auxiliary arm” (OM Pharma, priority 1999, dated 2012).

What all share (type): cell-based
The test system of one series is HIV-1 IIIB. As to the kind of experiment: anti-HIV activity in MT-4 cells (MTT), HIV-1 IIIB. How it is done: (§1) T MT-4 lymphocyte cell line which had been transformed into a continuous cell line by an HTLV infection, a virus associated with one form of leukemia, was used to test the antiviral activity (anti-HIV) of AZT- and d4T-conjugated compounds according to the invention, respectively. A characteristic feature of such cells is lack of survival following an HIV infection. The test is based on protection provided by the product (like AZT) against this viral destructive effect. Products were tested in serially diluted solutions in a 96-well plate. In the upper portion of the microplate, products were tested by incubation at various concentrations with cells and virus (in triplicate), so as to determine the concentration of product which affords cell protection against the viral destructive effect. IC50 of the product is taken as the concentration where a 50% loss of viable cell count is recorded. Viable cell count was done with MTT, a yellow tetrazolium compound which undergoes enzymatic reduction (at the mitochondrial level in viable cells) into a purple colored formazan compound. Wells containing viable cells are purple in colour, whereas dead cells give a persistent yellow color. Measurement of optical density (O.D.) allows this effect to be quantified.

Another series relates to HIV-2 ROD. As to the kind of experiment: anti-HIV activity in MT-4 cells (MTT), HIV-2 ROD. On the procedure:
as §1

The test system of another series is MT-4 cells. As to the kind of experiment: cytotoxicity on virus-free MT-4 cells (MTT). How it is done:
Cytotoxicity of a given product is assessed in the same manner in the lower portion of the plate where the test is conducted by incubating serially diluted products over virus-free cells, to thereby determine the toxic effect of products on cells. The result is given as CC50, i.e. the concentration at which 50% of cells are dead due to product toxicity. Selectivity (selectivity index, SI) of a given product is defined as a CC50/IC50 ratio. This parameter is of great importance since the selectivity index of a fairly efficient product is high.

Usually IC50 stands for the point on the concentration scale where inhibition reaches its midpoint. Read a low IC50 as inhibition by little substance. Usually CC50 stands for the concentration giving 50% cytotoxicity.

With `Cc1cn([C@H]2C[C@H](N=[N+]=[N-])[C@@H](CO)O2)c(=O)[nH]c1=O` [AZT, reference compound], the IC50 in the series on HIV-1 IIIB was determined as 2.9 nM; in the series with HIV-2 ROD it was 1.8 nM. Further, in the series with MT-4 cells, it took 187000 nM to reach half-maximal cytotoxicity (CC50).

As for `Cc1cn([C@H]2C=C[C@@H](CO)O2)c(=O)[nH]c1=O` [Example D4T, reference compound], the IC50 in the series on HIV-1 IIIB worked out at 107 nM; with HIV-2 ROD it was 220 nM. In the series on MT-4 cells, this compound gave a CC50 of 321000 nM.
